The results in this text go back to US7671045B2, “17-phosphorous steroid derivatives useful as progesterone receptor modulators” (Janssen Pharmaceutica N.V., priority 2006, dated 2010).

Assay [1] has as its system A549 Human lung carcinoma cells. The assay is described as follows: Transient transfection and Steady Glo luciferase assay in A549 cells with dexamethasone challenge. The assay is classed as cell-based. How it is done:
Transient Transfection and Steady Glo Luciferase Assay
A549 Human lung carcinoma cells were grown in F-12K Nutrient Mixture containing 10% (v/v) fetal bovine serum (FBS; Invitrogen), 2 mM glutamine and 0.15% […] (Invitrogen)
A549 cells were split 1 to 3 in 175 cm tissue culture flask. The cells were incubated at 37° C. in CO2 incubator until the cells were 95% confluent (typically 24-30 hours).
The following solutions were prepared in sterile tubes: (a) Solution A: 1.5 μg/ml of DNA in 8.5 ml OPTI-MEM I Reduced Serum Medium. (GIBCO cat# 31985) and (b) Solution B: 6 μl/ml of DMRIE-C Reagent into […] OPTI-MEM I. The two solutions were combined and mixed gently, then incubated at room temperature for 40 minutes.
The A549 cells prepared above were washed with […] of OPTI-MEM I. The medium was removed and 17 ml of the lipid-DNA complex solution was overlayed onto cells. The cells ere then incubated for 16 h at 37° C. in CO2 incubator. The DNA-containing medium was removed and 30 ml of growth medium was added. (5% Charcoal treated FBS) After 5-6 h, the cells were seeded in a 96 well plate and the cells incubated overnight at 37° C. in CO2 incubator.
To each well was then added 5 μl of test compounds and the cells incubated at 37° C. for 10 min. 5 μL of dexamathasone (CAS [50-02-2]), a glucocorticoid agonist, solution was then added to each well for challenger and the cells incubated at 37° C. in CO2 incubator for 24 h. 100 μl of Luc-assay buffer was then added into each cell well and the cells incubated for 30 min at room temperature. A 150 μL sample from each well was then transferred into a DYNEX Microlitel plate and read on Top-counter.

Assay [2] relates to T47D human breast cancer cells. The experiment in a line: Alkaline phosphatase assay in human breast cancer cell line T47D. It counts as cell-based. How it is done:
Alkaline Phosphatase Assay in Human Breast Cancer Cell Line T47D
T47D human breast cancer cells were grown in RPMI medium without phenol red (Invitrogen) containing 10% (v/v) heat-inactivated fetal bovine serum (FBS; Hyclone), 1% (v/v) penicillin-streptomycin (Invitrogen), 1% (w/v) glutamine (Invitrogen), and […] insulin (Sigma). Incubation conditions were 37° C. in a humidified 5% (v/v) carbon dioxide environment.
The cells were plated in 96-well tissue culture plates at 10,000 cells per well in assay medium [RPMI medium without phenol red (Invitrogen) containing 5% (v/v) charcoal-treated FBS (Hyclone) and 1% (v/v) penicillin-streptomycin (Invitrogen)]. Two days later, the medium was decanted and test compound or control were added at a final concentration of 0.1% (v/v) dimethyl sulfoxide in fresh assay medium. Twenty-four hours later, an alkaline phosphatase assay was performed using a SEAP kit (BD Biosciences Clontech, Palo Alto, Calif.). Briefly, the medium was decanted and the cells were fixed for 30 minutes at room temperature with 5% (v/v) formalin (Sigma). The cells were washed once with room temperature Hank's buffered saline solution (Invitrogen). Equal volumes (0.05 mL) of 1× Dilution Buffer, Assay Buffer and 1:20 substrate/enhancer mixture were then added. After 1 hour incubation at room temperature in the dark, the lysate was transferred to a white 96-well plate (Dynex) and luminescence was read using a LuminoSkan Ascent (Thermo Electron, Woburn, Mass.).

Where [3] appears, read: transfected A549 cells, luciferase readout, challenged with dexamethasone (glucocorticoid agonist), 24 h, read-out: A549 IC50.
[4] abbreviates: T47D cells, alkaline phosphatase readout, 24 h with test compound, read-out: T47D IC50.
The mark [5] stands for this setting: A549, 24 h, read-out: A549 IC50 (nM).
Setting [6] is: T47D, 24 h, read-out: T47D IC50 (nM).

Read-outs that look alike come from different tables or passages of the source.

As to `C=C1CCO[C@]12CC[C@H]1[C@@H]3CCC4=CC(=O)CCC4=C3[C@@H](c3ccc(P(=O)(c4ccc(Cl)cc4)c4ccc(Cl)cc4)cc3)C[C@@]12C` [Compound 39, 19,24-Dinorchola-4,9,20-trien-3-one, 17,23-epoxy-11-[4-[Bis-(4-chloro-phenyl)-phosphinoyl]-phenyl]-, (11β,17α)-(9Cl)], the IC50 in assay [1] (setting [3]) was found to be 143 nM; in assay [2] (setting [4]), 20 nM.

For `CCOP(=O)(C#C[C@]1(O)CC[C@H]2[C@@H]3CCC4=CC(=O)CCC4=C3[C@@H](c3ccc(N(C)C)cc3)C[C@@]21C)OCC` [Compound 101], the IC50 in assay [1] (setting [5]) is greater than 100 nM; in assay [2] (setting [6]), 1.3 nM.

`CN(C)c1ccc([C@H]2C[C@@]3(C)[C@@H](CC[C@@]3(O)C#CP(C)(C)=O)[C@@H]3CCC4=CC(=O)CCC4=C32)cc1` [Compound 102]: the IC50 turned out to be 70.4 nM in assay [1] (setting [3]) and 7.3 nM in assay [2] (setting [4]).

Turning to `CN(C)c1ccc([C@H]2C[C@@]3(C)[C@@H](CC[C@@]3(O)C#CP(=O)(c3ccccc3)c3ccccc3)[C@@H]3CCC4=CC(=O)CCC4=C32)cc1` [Compound 103], the values for the IC50 in assay [1] (setting [3]) and in assay [2] (setting [4]) were 41.6 nM and 1.57 nM, respectively.

With `CN(C)c1ccc([C@H]2C[C@@]3(C)[C@@H](CC[C@@]3(O)C#CP(=O)(N3CCOC3=O)N3OCCC3=O)[C@@H]3CCC4=CC(=O)CCC4=C32)cc1` (stereo partly drawn) [Compound 104], the 50% inhibitory concentration (IC50) in assay [1] (setting [3]) amounted to 64 nM; in assay [2] (setting [4]), 7.25 nM.

In the case of `COP(=S)(C#C[C@]1(O)CC[C@H]2[C@@H]3CCC4=CC(=O)CCC4=C3[C@@H](c3ccc(N(C)C)cc3)C[C@@]21C)OC` [Compound 105], the IC50 was 55.8 nM in assay [1] (setting [5]) and 1.44 nM in assay [2] (setting [6]).

Take `CN(C)c1ccc([C@H]2C[C@@]3(C)[C@@H](CC[C@@]3(O)C#CP(=O)(N(C)C)N(C)C)[C@@H]3CCC4=CC(=O)CCC4=C32)cc1` [Compound 106]: the IC50 in assay [1] (setting [3]) is 121 nM; in assay [2] (setting [4]) it was 7.53 nM.

For `CCOP(=O)(C#C[C@]1(O)CC[C@H]2[C@@H]3CCC4=CC(=O)CCC4=C3[C@@H](c3ccc(SC)cc3)C[C@@]21C)OCC` [Compound 107], the IC50 in assay [1] (setting [5]) amounted to 454 nM; in assay [2] (setting [6]) it was 4.75 nM.

In the case of `CCOP(=O)(C#C[C@]1(O)CC[C@H]2[C@@H]3CCC4=CC(=O)CCC4=C3[C@@H](c3ccc(OC)cc3)C[C@@]21C)OCC` [Compound 108], the IC50 worked out at 72.2 nM in assay [1] (setting [5]) and 6.9 nM in assay [2] (setting [6]).
